From article doi:10.1101/580449v1 (biorxiv, 2019)

Experiments:
hCST = target: T1, hCST (Homo sapiens, UniProt P78382); assay: GFP-thermal shift titration; format: binding
T1 sequence (P78382 1-337): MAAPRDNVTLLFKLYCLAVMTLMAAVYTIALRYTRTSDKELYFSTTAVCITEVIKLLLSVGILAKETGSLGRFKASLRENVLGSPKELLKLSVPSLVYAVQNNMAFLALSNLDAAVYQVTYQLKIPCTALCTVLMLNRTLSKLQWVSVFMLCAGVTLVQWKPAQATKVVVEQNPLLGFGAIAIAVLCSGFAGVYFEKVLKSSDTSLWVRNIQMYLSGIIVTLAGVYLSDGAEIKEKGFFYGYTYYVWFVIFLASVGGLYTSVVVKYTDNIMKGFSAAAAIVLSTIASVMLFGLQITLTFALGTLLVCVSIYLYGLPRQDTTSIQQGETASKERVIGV

[1] = target: T2, CSTZM (wildtype sequence) (Zea mays, UniProt B4FZ94); assay: GFP-thermal shift titration; format: binding
T2 sequence (B4FZ94 1-322): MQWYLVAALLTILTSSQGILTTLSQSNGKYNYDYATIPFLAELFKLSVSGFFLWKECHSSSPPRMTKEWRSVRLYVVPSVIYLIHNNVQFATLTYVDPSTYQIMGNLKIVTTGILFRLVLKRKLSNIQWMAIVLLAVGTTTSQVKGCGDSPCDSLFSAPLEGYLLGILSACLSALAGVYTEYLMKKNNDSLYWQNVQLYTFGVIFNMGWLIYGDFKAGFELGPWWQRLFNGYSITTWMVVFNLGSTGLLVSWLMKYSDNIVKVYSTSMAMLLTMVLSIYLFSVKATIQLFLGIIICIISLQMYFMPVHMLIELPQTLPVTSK

Structure (SMILES) | Kd (hCST) | Kd [1]
CC(=O)N[C@H]1[C@H]([C@H](O)[C@H](O)CO)O[C@](OP(=O)(O)OC[C@H]2O[C@@H](n3ccc(N)nc3=O)[C@H](O)[C@@H]2O)(C(=O)O)C[C@@H]1O [CMP-sialic acid] | 1500 ± 300 µM | 3100 ± 200 µM
Nc1ccn([C@@H]2O[C@H](COP(=O)(O)O)[C@@H](O)[C@H]2O)c(=O)n1 [CMP] | 40 µM | 40 µM
